{
  "source": "patent US20260108547A1",
  "about": "“LEVERAGING L-FUCOSE-MEDIATED SIGNALING TO INDUCE MONOCYTE-DERIVED DENDRITIC CELL POLARIZATION” (H. LEE MOFFITT CANCER CENTER AND RESEARCH INSTITUTE, INC., priority 2022, published 2026)",
  "key": {"breast tumors": {"tested_on": "breast tumors", "experiment": "Syngeneic breast tumor model, tumor growth and flow cytometry of immune cells", "format": "in vivo", "from_the_text": "We observed that L-fucose reduces tumor growth in breast cancer and enriches for CD11c+ cells."}, "SW1 tumors": {"tested_on": "SW1 tumors", "experiment": "Immunofluorescent (AAL) analysis of mouse tumor tissue fucosylation", "format": "in vivo", "settings": "oral L-fuc; SW1 model", "description": "In general, paraffin-embedded FFPE tumor tissue sections (or the TMA slide) were melted at 70° C. for 30 min. The slides were further de-paraffinizeded using xylene and rehydrated in serial alcohol washes. The slides were pressure cooked at 15 PSI for 15 min in a 1×DAKO antigen retrieval buffer (Agilent Technologies (Santa Clara, CA)). The tumor sections were subject to two 5-min standing washes in PBS prior to blocking in 1× Carb-Free Blocking Solution (Vector Labs (Burlingame, CA)) for 2-3h. The slides were next washed twice and incubated with indicated lectin and/or antibodies.\nFor assessment of mouse tumor fucosylation, FFPE tumor sections were immunostained with FITC-conjugated AAL lectin (0.4 μg/mL, Vector Laboratories (Burlingame, CA)) and rabbit anti-Mart1+rabbit anti-S100 (melanoma marker cocktail). The slides were mounted with Vectashield+DAPI (Vector Laboratories (Burlingame, CA)). Four representative microscopy images per tumor were acquired using a Keyence BZ-X710, and images were process and analyzed using FUI (NIH) as follows: melanoma marker-positive regions were assigned as regions of interest (ROI) in which we measured Integrated density of AAL signal. Integrated densities of control tumors were assigned as 1, and Integrated AAL density values of experimental tumors were divided by control to produce relative fold changes and plotted as column charts."}, "HLA-DRB1": {"tested_on": "HLA-DRB1", "experiment": "qRT-PCR and immunoblot of HLA-DRB1 mRNA and protein levels in melanoma cells", "format": "cell-based, human", "settings": "250 μM", "description": "Cells were lysed on ice in RIPA lysis buffer (25 mM Tris-HCl pH 7.6, 150 mM NaCl, 5 mM EDTA, 1% NP-40 or 1% Triton X-100, 1% sodium deoxycholate, 0.1% SDS in diH2O+protease and phosphatase inhibitors (ThermoFisher Scientific (Waltham, MA)), briefly sonicated, pelleted, and the resulting lysates were normalized by protein concentration using DC assay (BioRad Laboratories, (Hercules, CA)). The indicated samples were subjected to (12%) SDS-PAGE and immunoblot analysis using the indicated antibodies. Immunoblot imaging and analysis was performed using either an Odyssey FC scanner and ImageStudio (LiCor Biosciences, Lincoln, NE) or film.\nRNA from cells subjected to the indicated treatments was extracted using Gene Elute Mammalian Total RNA Extraction System (Millipore Sigma (St. Louis, MO)). RNA was reversed transcribed to cDNA using High-Capacity cDNA Reverse Transcription Kit (ThermoFisher Scientific (Waltham, MA)). qRT-PCR analysis was performed using FastStart Universal SYBR Green Master Mix (Rox) (Roche Diagnostics, (Indianapolis, IN)) using a BioRad CFX96 Real-time system (BioRad Laboratories, (Hercules, CA)). The qRT-PCR cycles used were as follows: 95° C. for 10 min, 35 cycles of 95° C. for 15 seconds, 55° C. for 60 seconds,\nand 72° C. for 30 seconds. Expression of the indicated genes was normalized to histone H3A expression. […]"}},
  "data": [
    {"molecule": "C[C@H](O)[C@@H](O)[C@@H](O)[C@H](O)C=O", "note": "[L-fucose]", "values": [
      {"measurement": "CD11c+ cells in breast tumors", "setting": "breast tumors; flow cytometry", "value": "enrichment of CD11c+ cells"},
      {"measurement": "breast tumor growth", "setting": "breast tumors; syngeneic breast tumor model", "value": "dose-dependent tumor suppression"},
      {"measurement": "increased tumor fucosylation", "setting": "SW1 tumors", "value": "~2", "unit": "fold"},
      {"measurement": "HLA-DRB1 mRNA and protein levels", "setting": "HLA-DRB1", "value": "remained unchanged"}
    ]}
  ]
}
